This passage reports IC50 results from ChEMBL document CHEMBL3886974, “Imidazopyrazines” (2016).

The term IC50 denotes the concentration at which inhibition is half-maximal.

In the test the target is T1, Dual specificity protein kinase TTK (Homo sapiens, UniProt P33981).
T1 sequence (P33981 whole entry): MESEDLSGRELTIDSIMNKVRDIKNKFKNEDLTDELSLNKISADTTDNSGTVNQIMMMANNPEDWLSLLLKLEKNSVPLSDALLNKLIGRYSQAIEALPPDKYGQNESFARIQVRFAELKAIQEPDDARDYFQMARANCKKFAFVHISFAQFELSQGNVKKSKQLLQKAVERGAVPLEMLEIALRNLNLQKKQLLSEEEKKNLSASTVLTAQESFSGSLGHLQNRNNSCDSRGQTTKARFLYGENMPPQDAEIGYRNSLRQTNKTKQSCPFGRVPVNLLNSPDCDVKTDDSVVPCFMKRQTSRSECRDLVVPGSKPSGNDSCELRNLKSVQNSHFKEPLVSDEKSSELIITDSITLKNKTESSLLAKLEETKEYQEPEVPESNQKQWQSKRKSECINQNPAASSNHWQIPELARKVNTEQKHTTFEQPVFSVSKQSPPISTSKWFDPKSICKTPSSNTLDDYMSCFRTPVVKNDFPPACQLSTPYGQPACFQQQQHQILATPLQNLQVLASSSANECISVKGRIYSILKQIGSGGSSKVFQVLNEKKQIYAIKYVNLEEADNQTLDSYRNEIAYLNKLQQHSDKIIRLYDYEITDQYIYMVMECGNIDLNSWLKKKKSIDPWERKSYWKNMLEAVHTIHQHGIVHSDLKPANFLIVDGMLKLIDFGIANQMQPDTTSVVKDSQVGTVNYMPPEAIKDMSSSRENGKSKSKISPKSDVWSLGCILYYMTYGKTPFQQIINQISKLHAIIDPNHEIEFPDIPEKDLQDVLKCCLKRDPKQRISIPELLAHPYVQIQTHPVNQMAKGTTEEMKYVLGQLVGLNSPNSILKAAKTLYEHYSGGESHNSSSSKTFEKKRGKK
The test can be described thus: Kinase Assay: For the assay 50 nl of a 100-fold concentrated solution of the test compound in DMSO was pipetted into a black low volume 384 well microtiter plate (Greiner Bio-One, Frickenhausen, Germany), 2 ul of a solution of Mps-1 in assay buffer [0.1 mM sodium-ortho-vanadate, 10 mM MgCl2, 2 mM DTT, 25 mM Hepes pH 7.7, 0.05% BSA, 0.001% Pluronic F-127] were added and the mixture was incubated for 15 min at 22° C. to allow pre-binding of the test compounds to Mps-1 before the start of the kinase reaction. Then the kinase reaction was started by the addition of 3 ul of a solution of 16.7 adenosine-tri-phosphate (ATP, 16.7 uM=>final conc. in the 5 ul assay volume is 10 uM) and peptide substrate (1.67 uM=>final conc. in the 5 ul assay volume is 1 uM) in assay buffer and the resulting mixture was incubated for a reaction time of 60 min at 22° C. The concentration of Mps-1 in the assay was adjusted to the activity of the enzyme lot and was chosen appropriate to have the assay in the linear range, typical enzyme concentrations were in the range of about 1 nM (final conc. in the 5 ul assay volume). […].

The structures appear in SMILES notation.

In the case of `CSc1nc(C#CCO)cn2c(-c3ccc(-c4cnc(C5CC5)[nH]4)cc3)cnc12`, the half-inhibitory concentration (IC50) came to 151 nM.

On to `CSc1nc(-c2ccccc2)cn2c(-c3ccc(C(=O)NC4CC4)cc3)cnc12`, for which the IC50 amounted to 25.7 nM.
